In patent US20260158005A1, “A SALT-BASED ANTIFUNGAL POWDER PLATFORM FORMULATION FOR AEROSOLIZATION” (AGENCY FOR SCIENCE, TECHNOLOGY AND RESEARCH, priority 2021, published 2026):
Converted amounts (≈) assume the structure as drawn.

Legend:
[1] = In vitro aerosol performance: Fine Particle Fraction (FPF) of the powder; format: physicochemical; settings: Table 5; optimized platform formulation (sodium sulfate 5% w/w, L-leucine 30% w/w, spray dry) vs unformulated
Description: The responses were Fine Particle Fraction (FPF) and Anti-fungal Activity (MIC—Minimum Inhibitory Concentration) (Table 2), while the tested pathogen was Candida albicans.
The FPF was influenced mainly by the type of salt excipient (i.e., parameter A; Rank 1), with sodium sulfate as one of the preferred options. The optimum results for all the parameters are: A6, B1, C1, D3.
Letters A, B, C and D represent the experimental parameters and corresponding levels.

Candida albicans = assay: Antifungal activity (MIC, Minimum Inhibitory Concentration); format: cell-based; settings: for MIC: Candida albicans, Table 5, optimized platform formulation vs unformulated
Description: The responses were Fine Particle Fraction (FPF) and Anti-fungal Activity (MIC—Minimum Inhibitory Concentration) (Table 2), while the tested pathogen was Candida albicans. The antifungal activity was influenced mainly by the type of salt excipient as well (i.e. parameter A; Rank 1), with sodium sulfate as one of the preferred options. The optimum results for all the parameters are: A6, B1, C3, D3.

SMILES	FPF (%) [1] [%]	MIC (Candida albicans) [µg/mL]	improvement in antifungal activity (Candida albicans; formulated using the platform technology vs unformulated)
OC(Cn1cncn1)(Cn1cncn1)c1ccc(F)cc1F [A, Fluconazole]	2.6 ± 0.1	0.25 (≈ 0.816 µM)	approximately 4 times
CCC(C)n1ncn(-c2ccc(N3CCN(c4ccc(OCC5COC(Cn6cncn6)(c6ccc(Cl)cc6Cl)O5)cc4)CC3)cc2)c1=O (stereo not drawn) [B, Itraconazole]	–	< 0.03	–
C[C@@H](c1ncncc1F)[C@](O)(Cn1cncn1)c1ccc(F)cc1F [C, Voriconazole]	3.5 ± 0.3	< 0.03	–
